From publication PMC10675785, “(L)-Monomethyl Tyrosine (Mmt): New Synthetic Strategy via Bulky ‘Forced-Traceless’ Regioselective Pd-Catalyzed C(sp^2)–H Activation” (Pharmaceuticals, 2023)

Target: human NOP receptor (Homo sapiens, UniProt P41146)
Assay: Calcium mobilization assay in CHO cells stably coexpressing the NOP receptor and the Gαqi5 chimeric G protein
Conditions: CHOhNOP + Gαqi5 cells; Fluo-4 AM, FlexStation II, 37 °C; four-parameter logistic fit; mean of 5 or at least 6 experiments in duplicate
Procedure: Drugs and reagents: The reagents used were purchased from Sigma-Aldrich (St. Louis, MO, USA) and Thermo Fisher Scientific (Waltham, MA, USA). […] Concentrated solutions of ligands were made in distilled water (1 mM) and kept at −20 °C until use. Successive dilutions of ligands were made in Hank’s Balanced Salt Solution (HBSS) and HEPES buffer (containing 0.005% Bovine Serum Albumine (BSA)).
Cell Culture: Chinese Hamster Ovary (CHO) cells stably coexpressing the NOP opioid receptors and the Gαqi5 protein were used. […]
Calcium Mobilization Assay: Calcium mobilization studies were performed using the automated fluorometer microplate reader FlexStation II (Molecular Devices, Sunnyvale, CA, USA), which was employed to detect changes in fluorescence intensity. […] After placing both plates (cell culture and compound plate) into the fluorometric imaging plate reader FlexStation II, fluorescence changes were measured. […] Maximum change in fluorescence, expressed as percent over the baseline fluorescence, was used to determine agonist response.
Data analysis and terminology: All data were analyzed using Graph Pad Prism 6.0 (La Jolla, CA, USA). […] Data were expressed as mean ± sem of 5 experiments performed in duplicate. Agonist effects were expressed as the maximum change in percent over the baseline fluorescence. Baseline fluorescence was measured in wells treated with vehicles. […]

Sequence of human NOP receptor (P41146 whole entry): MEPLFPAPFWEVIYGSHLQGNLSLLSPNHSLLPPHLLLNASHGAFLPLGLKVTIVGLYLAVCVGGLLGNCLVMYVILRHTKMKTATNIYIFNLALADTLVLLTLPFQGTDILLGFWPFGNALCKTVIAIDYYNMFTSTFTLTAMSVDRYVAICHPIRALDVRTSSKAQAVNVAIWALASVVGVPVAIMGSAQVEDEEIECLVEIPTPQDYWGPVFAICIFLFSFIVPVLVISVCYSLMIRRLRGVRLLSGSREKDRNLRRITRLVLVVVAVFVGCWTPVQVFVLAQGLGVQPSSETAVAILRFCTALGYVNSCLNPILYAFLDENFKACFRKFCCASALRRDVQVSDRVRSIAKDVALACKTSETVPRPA

[Dmt^1]N/OFQ(1-13)-NH2
pEC50 (CL95%): 8.35 (7.94–8.77)
